US20080234232A1, “Methods and compositions for targeting AFAP” (priority 2007, published 2008)

Columns and labels:
[1] = tested on: AFAP-110 colocalization with cSrc and cSrc activation; assay: Immunofluorescence: PMA-induced colocalization of AFAP-110 with cSrc and cSrc activation in mouse embryo fibroblasts; assay type: cell-based
Protocol: FIG. 1: LY294002 blocks PMA-induced colocalization between AFAP-110 and cSrc, and subsequent cSrc activation. A) SYF cells transiently co-expressing GFP-AFAP-110 and cSrc were untreated (panels a-d), treated with 100 nM PMA for 15 minutes (panels e-h), or treated with PMA and either 6 μM bisindolylmaleimide (panels i-I), 10 μM LY294002 (panels m-p) or 50 nM Wortmannin (panels q-t). Fixed cells were immunolabeled with avian specific cSrc antibody, EC10 (1:500), and phospho-Src-family (Tyr416) (1:250) as described in the methods section. Secondary antibodies used were Atexa 546 anti-mouse for EC10 and Alexa 647 anti-rabbit for phospho-Src-family (Tyr416). A merged image was generated to determine colocalization between AFAP-110 and cSrc. Bars represent 20 μM.
D) Knockout MEFs (p85−/−) were transfected with GFP-AFAP-110 and cSrc. Fixed cells were immunolabeled with EC10 (1:500) and phospho-Src-family (Tyr416) (1:250) as described in the methods section. Secondary antibodies used were Alexa 546 anti-mouse for EC10 and Alexa 647 anti-rabbit for phospho-Src-family (Tyr416). Cells treated with 100 riM PMA for 15 minutes (panels e-h). Images were merged to determine colocalization of cSrc and GFP-AFAP-110. Bars represent 20 μm. Mouse embryo fibroblast cells that express the p85α isoform of the PI3K regulatory subunit (p85α+/+) were transfected with GFP-AFAP-110 and cSrc. Fixed cells were immunolabeled with EC10 (1:500) and phospho-Src-family (Tyr416) (1:250) as described in the methods section. Secondary antibodies used were Alexa 546 anti-mouse for EC10 and Alexa 647 anti-rabbit for phospho-Src-family (Tyr416). Images were merged to determine colocalization of cSrc and GFP-AFAP-110. Bars represent 20 μm.
(§1) SYF, SYF/cSrc, p85α+/+ and p85−/− cells were cultured in standard culture media. Transient transfections of SYF, SYF/cSrc, p85α+/+ cells for immunofluorescence were carried out using LipofectAMINE™ Reagent (Invitrogen) as per manufacturer's protocol. Briefly, Approximately 5.0-8.0×10^4 cells per well were transfected at 50-70% confluent on coverstips with 2-4 μg of plasmid DNA and incubated for 3-4 hours. Thirty-six hours after transfection, cells were serum starved for 12 hours, treated, and subsequently fixed and permeablized as previously described (Qian, Y. et. al., 1998). Cells were treated with a PKC activator, 100 nM PMA for 5 or 15 minutes or in combination with the following pretreatments; a PKC inhibitor, 6 μM bisindolylmaleimide [I] for six hours; or PI3K inhibitor, 10 μM LY294002 for six hours; 50 nM Wortmannin for 30 minutes; and/or a Src family inhibitor, 5 μM PP1 for six hours. For actin labeling, a 1:500 dilution of TRITC-phalloidin was used as labeled in the figures. Primary antibody concentrations used were diluted in 5% Bovine Serum Albumin (BSA) dissolved in 1× phosphate-buffered saline (PBS): EC10 mAb-1:500; Phospho-Src Family (Y416) pAb-1:250; Anti-PI-3,4,5-P3 mAb-1:100; Anti-AFAP-110 (F1)pAb-1:1000; Anti-cSrc pAb-1:500; Anti-flag-1:1000. All fluorescent secondary and phalloidin antibodies were diluted 1:200 in 5% BSA, and are labeled according to figure legends. Cells were washed and mounted on slides with Fluoromount-G (Fisher). A Zeiss LSM 510 confocal microscope was used to scan images of about 1 μM in thickness. To prevent cross-contamination between the different fluorochromes, each channel was imaged sequentially using the multitrack recording module before merging the images. For all figures, representative cells are shown (>100 cells examined per image shown).
We utilized SYF cell lines as a model system, mouse embryo fibroblasts engineered to contain null mutations in the c-src,fyn, and c-yes genes (Klinghoffer, R. A. et. al., 1999). The cells were transiently co-transfected with constructs that encode cSrc and GFP-tagged AFAP-110, as previously described (Gatesman, A. et. al., 2004). […]

[2] = tested on: cSrc; assay: Western blot of phospho-Src family (Y416) after PMA treatment; assay type: cell-based, mouse; conditions: 100 nM PMA 15 min
Protocol: E) SYF, SYF/cSrc, and p85−/− were treated with 100 nM PMA for 15 minutes, 40 μg cell lysate resolved by SDS-PAGE and western blot analysis performed to evaluate phospho-Src family (Y416)(1:1000) and cSrc (1:500) as described in the methods section. Beta-actin (1:5000) was used as a loading control.
All cells were cultured to 70-80% confluence, serum-starved for 16 hours, and treated as described above. The cells were lysed and western analysis performed as previously described (Guappone, A. C. et. al., 1997). Membranes were probed using the following antibodies diluted in 1× Tris-buffered saline plus 0.1% Tween-20 (TBS-T) containing 5% nonfat milk, except were indicated: 1:10000 AFAP-110 pAb (F1), 1:1000 Phospho-Src family Tyrosine 416 (Cell Signal) in 5% BSA, 1:500 cSrc (clone N-16: Santa Cruz Biotechnology), 1:1000 p85α (BD Biosciences), 1:1000 p110α (BD Biosciences), 1:1000 PKCα (BD Biosciences), and 1:5000 β-actin in 1% BSA (Sigma).

[3] = tested on: cSrc; assay: Immunofluorescence: translocation of cSrc from the perinuclear region to the cell periphery; assay type: cell-based, mouse; conditions: 100 nM PMA
Protocol: FIG. 2: Inhibition of PI3K blocks translocation of cSrc from the perinuclear region of mouse embryo fibroblast in response to PMA treatment. SYF and p85−/− null cells were transiently transfected with cSrc and labeled for avian cSrc using EC10, an avian-specific monoclonal antibody (1:500). EC10 was visualized with anti-mouse Atexa Fluor 488 (false colored red for consistency). Cells treated with 100 nM PMA (panel b) induced translocation of cSrc to the cell periphery as indicated by the arrows. However, cells treated with 100 nM PMA in conjunction with 6 μM bisindolylmaleimide (panel c) or 10 μM LY (panel d) blocked the translocation of cSrc as indicated by the arrows. […] (n=nucleus) Bars represent 20 μM.
as §1, with “All fluorescent secondary and phalloidin antibodies were diluted 1:200 in 5% BSA, and are labeled according to figure legends. Cells were washed and mounted on slides with Fluoromount-G (Fisher). A Zeiss LSM 510 confocal microscope was used to scan images of about 1 μM in thickness. To prevent cross-contamination between the different fluorochromes, each channel was imaged sequentially using the multitrack recording module before merging the images. For all figures, representative cells are shown (>100 cells examined per image shown).” left out

[4] = p85−/− cells, 100 nM PMA 15 min

CCCCCCCCCCCCCC(=O)O[C@@H]1[C@@H](C)[C@@]2(O)[C@@H](C=C(CO)C[C@]3(O)C(=O)C(C)=C[C@@H]23)[C@@H]2C(C)(C)[C@]12OC(C)=O [PMA, Phorbol 12-myristate 13-acetate]
activation of cSrc (anti-phospho-cSrc Y416 immunoreactivity) on PMA treatment ([1]; SYF cells, 100 nM PMA 15 min): evidence for activation of cSrc
colocalization of GFP-AFAP-110 with cSrc on PMA treatment ([1]; SYF cells, 100 nM PMA 15 min): caused GFP-AFAP-110 to colocalize with cSrc
cSrc activation on PMA treatment ([1]; p85α+/+ cells): enables PMA to induce
colocalization of AFAP-110 with cSrc on PMA treatment ([1]; p85α+/+ cells): enables PMA to induce
cSrc activation on PMA treatment [1, 4]: no evidence for cSrc activation
colocalization of AFAP-110 with cSrc on PMA treatment [1, 4]: failed to induce significant colocalization
tyrosine416 phosphorylation of cSrc ([2]; SYF/cSrc cells): induced
cSrc activation (western blot) ([2]; mouse embryo fibroblasts lacking the p85 regulatory subunit): failed to induce
translocation of cSrc on PMA treatment ([3]; SYF cells transfected with cSrc): induced cSrc to translocate from the perinuclear region to the cell periphery
translocation of cSrc on PMA treatment ([3]; p85−/− cells): cSrc remained in the perinuclear region
